Test results reported in PubChem BioAssay (NCI).
“And” between values parts separate entries of the source, which are not always exact repeats. Equal entries are not always repeated.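 Interpolation was linear, between the two tested concentrations surrounding the appropriate level; five concentrations were tested over 48 hours in 96-well plates. GI50 is the concentration that inhibits growth by half. TGI is the concentration that stops growth completely.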

Assays:
Assay in all cases: NCI tumour cell line growth inhibition, 48 h
IGROV1 ovarian = test system: IGROV1 ovarian
NCI-H522 lung = test system: NCI-H522 lung
HS 578T breast = test system: HS 578T breast
SK-MEL-28 melanoma = test system: SK-MEL-28 melanoma
OVCAR-3 ovarian = test system: OVCAR-3 ovarian
HT29 colon = test system: HT29 colon
SW-620 colon = test system: SW-620 colon
HL-60(TB) leukemia = test system: HL-60(TB) leukemia
RXF 393 renal = test system: RXF 393 renal
LOX IMVI melanoma = test system: LOX IMVI melanoma

| Structure (SMILES) | GI50 (IGROV1 ovarian) | TGI (IGROV1 ovarian) | GI50 (NCI-H522 lung) | TGI (NCI-H522 lung) | GI50 (HS 578T breast) | TGI (HS 578T breast) | GI50 (SK-MEL-28 melanoma) | TGI (SK-MEL-28 melanoma) | GI50 (OVCAR-3 ovarian) | TGI (OVCAR-3 ovarian) | GI50 (HT29 colon) | TGI (HT29 colon) | GI50 (SW-620 colon) | TGI (SW-620 colon) | GI50 (HL-60(TB) leukemia) | TGI (HL-60(TB) leukemia) | GI50 (RXF 393 renal) | TGI (RXF 393 renal) | GI50 (LOX IMVI melanoma) | TGI (LOX IMVI melanoma) |
| --- | --- | --- | --- | --- | --- | --- | --- | --- | --- | --- | --- | --- | --- | --- | --- | --- | --- | --- | --- | --- |
| NC1=NC(c2ccc(Cl)cc2)C2=C(N1)/C(=C/c1ccc(Cl)cc1)CCC2 (centres undefined) | 15 µM | > 64.4 µM | 15.7 µM | 36.9 µM | 7.97 µM | > 29.9 µM | 17 µM | 45.4 µM | 5.76 µM | 15.4 µM | 3.14 µM | 9.78 µM | 3.24 µM | 12.4 µM | 12.3 µM | 45.8 µM | 2.05 µM | 4.45 µM | 1.85 µM | 3.64 µM |
| Cn1cc(-c2cnc3ccc4ccc(CS(=O)(=O)NCc5ccccn5)cc4c(=O)c3c2)cn1 | 22.1 µM | > 100 µM | 22 µM | > 95.9 µM | 14 µM | > 100 µM | 15 µM | 35.4 µM | 14.6 µM | 45.8 µM | 15.1 µM | > 100 µM | 15.6 µM | > 100 µM | 9.15 µM | 41.8 µM | 12.9 µM | 35.1 µM | 13.5 µM | 35.3 µM |
| COc1cccc(/C=C/c2cnc3ccccc3n2)c1OC |  | > 100 µM |  | 53.5 µM |  | 68.5 µM |  | > 100 µM |  | > 100 µM |  | 98.1 µM |  | > 100 µM |  | > 100 µM |  | 96.1 µM |  | > 100 µM |
| NS(=O)(=O)c1cccc(N=Cc2c(O)[nH]c3ccccc23)c1 | > 20.2 µM | > 25 µM | 24.4 µM | > 25 µM | > 25 µM | > 25 µM | > 25 µM | > 25 µM | > 25 µM | > 25 µM | > 25 µM | > 25 µM | > 25 µM | > 25 µM | > 25 µM | > 25 µM | > 25 µM | > 25 µM | > 25 µM | > 25 µM |
| COc1ccc(Cl)cc1NC(=O)C(Br)C(Br)C(=O)O (centres undefined) | 33.2 µM | > 73.5 µM | 1.91 µM | 5.45 µM | 43.9 µM | > 100 µM | 7.69 µM | > 49.2 µM | 2.63 µM | 6.81 µM | 25.6 µM | > 68.3 µM | 5 µM | > 51.5 µM | 5.61 µM | > 100 µM | 18.8 µM | 40.9 µM | 1.02 µM | 2.52 µM |
| Cc1ccc2c(O)c(O)cc(NC(C)CCCN)c2n1 (centres undefined) | 14.2 µM | 47.7 µM | 3.15 µM | 9.87 µM | 13.9 µM | 49.4 µM | 27.3 µM | 55.3 µM | 2.12 µM | 5.26 µM | 7.04 µM | > 72.4 µM | 10.2 µM | 51.3 µM | 10.7 µM | 37.8 µM | > 69.1 µM | > 100 µM | 4.55 µM | 25.4 µM |
| COc1cc(/C=C2\CN(C)C/C(=C\c3cc(CN4CCCCC4)c(O)c(OC)c3)C2=O)cc(CN2CCCCC2)c1O | 3.36 µM | 13.6 µM | 2.68 µM | 11.9 µM | 3.27 µM | 80.6 µM | 11.6 µM | 24.5 µM | 3 µM | 10.4 µM | 2.43 µM | 6.42 µM | 3.27 µM | 12.6 µM | 2.8 µM | 7.47 µM | 2.01 µM | 6.86 µM | 2.34 µM | 6.19 µM |
| O=C(O)c1ccc(N/C=C2\C(=O)c3ccccc3OC2O)cc1O (centres undefined) | 12.8 µg/mL | 47.3 µg/mL | 28 µg/mL | 62.9 µg/mL | 11.2 µg/mL | 76.5 µg/mL | 25.1 µg/mL | 69.2 µg/mL | 8.41 µg/mL | 41.9 µg/mL | 29.7 µg/mL | 83.2 µg/mL | 20.3 µg/mL | 48.3 µg/mL | 9.35 µg/mL | > 150 µg/mL | 12.6 µg/mL | 34.5 µg/mL | 22.5 µg/mL | 73.3 µg/mL |
| COc1cc2c[n+](C)c3c4ccccc4ccc3c2cc1OC (tested in a mixture with another compound) | 2.75 µM | 44.1 µM | 0.785 µM | 4.37 µM and 11.6 µM | 3.35 µM | 18.4 µM | 2.89 µM | 8.22 µM and 18.6 µM | 1.64 µM | 7.41 µM and 21.4 µM | 3.94 µM | 32.4 µM | 2.71 µM | 48 µM | 4.56 µM | > 84.2 µM |  | 54.4 µM | 4.02 µM | 30.9 µM |
| Cc1cc(C)c(O)c(CN(C)Cc2cc(Cl)cc(Cl)c2O)c1 | 2.2 µM | 8.85 µM | 2.22 µM | 6.14 µM | 5.41 µM | 32.8 µM | 11.4 µM | 24 µM | 2.4 µM | 8.16 µM | 5.1 µM | 17.4 µM | 3.71 µM | 14.3 µM | 4 µM | 33 µM | 7.34 µM | 23.6 µM | 4.06 µM | 17.1 µM |
| C=CCC1(O)c2cccc(NCCO)c2C(=O)c2c(NCCO)cccc21 | > 100 µM | > 100 µM | > 100 µM | > 100 µM | > 100 µM | > 100 µM | > 100 µM | > 100 µM | > 100 µM | > 100 µM | > 100 µM | > 100 µM | > 100 µM | > 100 µM | > 100 µM | > 100 µM | > 100 µM | > 100 µM | > 100 µM | > 100 µM |
| C#Cc1c(C(N)=O)ncn1C1OC(COP(=O)(OCc2ccc([N+](=O)[O-])o2)N(C)CCCCCl)C(O)C1O (centres undefined) | 4.59 µM | > 100 µM | 3.78 µM | 88.1 µM | > 100 µM | > 100 µM | 27.3 µM | > 100 µM | 15.1 µM | 63.5 µM | 13.3 µM | > 100 µM | 41.4 µM | > 100 µM | > 100 µM | > 100 µM | > 100 µM | > 100 µM | 22.4 µM | > 100 µM |
| O=C(O)c1cc(N=Cc2ccccc2O)cc(C(=O)O)c1 |  | > 100 µM |  | > 100 µM |  | > 100 µM |  | > 100 µM |  | > 100 µM |  | > 100 µM |  | > 100 µM |  | > 100 µM |  | > 100 µM |  | > 100 µM |
| Cc1cc(Nc2ncnc3ccc(NC4=NC(C)(C)CO4)cc23)ccc1Oc1ccn2ncnc2c1 | 12.5 µM and > 10 µM | > 100 µM | 2.44 µM and > 10 µM | 21.1 µM and > 10 µM | 15.2 µM and > 10 µM | 62.4 µM and > 10 µM | 13.2 µM and > 10 µM | 29.3 µM and > 10 µM | 14.4 µM and > 10 µM | 52.6 µM and > 10 µM | 14.4 µM and > 10 µM | 38.7 µM and > 10 µM | 20.5 µM and > 10 µM | 41.2 µM and > 10 µM | 21 µM and > 10 µM | 46.1 µM and > 10 µM | 12.7 µM and > 10 µM | 28.9 µM and > 10 µM | 13.4 µM and > 10 µM | 31.3 µM and > 10 µM |
| C=CC(=O)N[C@H]1CCOC[C@H]1Nc1ncc2cc(-c3c(Cl)c(OC)cc(OC)c3Cl)ccc2n1 | 23.7 µM | > 100 µM | 30.9 µM | > 100 µM | 17.8 µM | > 100 µM | 18.3 µM | 80.2 µM | 20.3 µM | > 100 µM | 13.2 µM | > 100 µM | 27.5 µM | > 100 µM | 12 µM | 64.5 µM | 5.35 µM | 36.7 µM | 14.9 µM | 48.9 µM |
| CO[C@@H]1/C=C(C)/C=C/[C@@H](C)/C=C(\C)C(=O)OC(/C(C)=C/C=C(\C)CNC(=O)[C@H](CO)NC=O)[C@@H](C)/C=C/C=C/[C@H](OC)CC/C=C(C)/C=C/C1 (some centres undefined) | < 0.005 µM | 9.15 µM | < 0.005 µM | 18.7 µM | < 0.005 µM | 24.9 µM | 0.00843 µM | 11.4 µM | < 0.005 µM | 0.605 µM | < 0.005 µM | > 50 µM | < 0.005 µM | 13.6 µM | < 0.005 µM | > 50 µM | 0.285 µM | 0.808 µM | < 0.005 µM | < 0.005 µM |
